Test results as given in patent publication US20210205329A1 (The University of North Carolina at Chapel Hill, priority 2018, published 2021).

Target: T1, HMGB1 binding to TLR4 (Rattus norvegicus, UniProt Q9QX05)
T1 construct: from tissue; host or cells: ventral tegmental area (VTA) of alcohol-preferring (P) rats
T1 sequence (Q9QX05 26-835): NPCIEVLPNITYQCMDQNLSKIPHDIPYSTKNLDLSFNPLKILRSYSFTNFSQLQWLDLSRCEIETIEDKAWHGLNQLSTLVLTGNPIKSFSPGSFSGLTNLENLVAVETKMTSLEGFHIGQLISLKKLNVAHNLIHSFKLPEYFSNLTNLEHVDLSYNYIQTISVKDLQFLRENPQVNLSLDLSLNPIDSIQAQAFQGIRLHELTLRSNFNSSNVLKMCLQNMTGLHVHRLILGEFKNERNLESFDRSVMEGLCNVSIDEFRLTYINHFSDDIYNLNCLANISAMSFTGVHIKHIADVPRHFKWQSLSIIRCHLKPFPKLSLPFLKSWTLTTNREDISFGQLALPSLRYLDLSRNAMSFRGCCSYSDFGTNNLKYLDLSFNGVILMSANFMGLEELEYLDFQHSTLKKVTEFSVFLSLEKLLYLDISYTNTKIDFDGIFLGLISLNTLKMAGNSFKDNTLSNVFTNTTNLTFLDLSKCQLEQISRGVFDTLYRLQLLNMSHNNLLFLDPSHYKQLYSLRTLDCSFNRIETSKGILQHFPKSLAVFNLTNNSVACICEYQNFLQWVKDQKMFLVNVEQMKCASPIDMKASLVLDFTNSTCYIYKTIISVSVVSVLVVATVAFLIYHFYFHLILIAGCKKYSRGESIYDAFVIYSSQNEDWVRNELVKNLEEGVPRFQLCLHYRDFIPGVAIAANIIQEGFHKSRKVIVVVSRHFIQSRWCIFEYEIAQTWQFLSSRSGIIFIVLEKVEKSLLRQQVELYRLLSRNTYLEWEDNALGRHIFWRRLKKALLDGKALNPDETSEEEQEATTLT
Experiment: TLR4/HMGB1 co-immunoprecipitation in P rat VTA
Type: in vivo
Details: 15 mg/kg IP, P rats
Experimental: Co-Immunoprecipitation Assay RAW264.7 cells [treated with LPS (1 μg/ml), 3α,5α-THP (1 μM) or pregnenolone (1 μM)] were exposed to chemical protein crosslinking (Poulopoulos et al, 2009) at 24 hrs post-treatment. Briefly, the cells were incubated (20 min on ice) with 1 mM of the cleavable, membrane-permeable crosslinker DSP (Thermo Fisher Scientific, Cat. #PG82081). Rat VTA homogenates were incubated (20 min on ice) with 200 μM of DSP. The crosslinker was quenched in 1 M Tris buffer (pH 7.5) (to a final concentration of 10-20 mM), and the material was centrifuged at 21,000×g for 15 min. Proteins from the cells were extracted with Pierce IP Lysis Buffer (Thermo Fisher Scientific, Cat. #87787) supplemented with protease and phosphatase inhibitor cocktails (Sigma). Proteins from the VTA were extracted with CelLytic MT (dialyzable mild detergent, bicine and 150 mM NaCl; Sigma Aldrich, St. Louis, Mo., USA, Cat. #C3228) supplemented with protease and phosphatase inhibitor cocktails (Sigma) according to the manufacturers instructions. […]

## CC(=O)[C@H]1CC[C@H]2[C@@H]3CC[C@H]4C[C@H](O)CC[C@]4(C)[C@H]3CC[C@]12C [3α,5α-THP, (3α,5α)3-hydroxypregnan-20-one]
  HMGB1 binding to TLR4 in VTA: not altered
